We go through five compounds from patent US20100196907A1, “MARKERS TO PREDICT AND MONITOR RESPONSE TO AURORA KINASE B INHIBITOR THERAPY” (ABBOTT LABORATORIES, priority 2009, published 2010).

In one series the test system is bone marrow. The conditions noted are these: cited from earlier work.
The conditions of series [1]: human plasma; cited from earlier work.
The next series relates to SW620^ABCB1/3 cells. The series is described as follows: histone H3 phosphorylation immunoblot, SW620^ABCB1/3. The conditions noted are these: 1 μM PSC-833 for 2 hours prior to AZD1152 HQPA. Type of series: cell-based, human. On the procedure: SW620 and SW620^ABCB1/3 cells were washed and allowed to grow in drug-free medium overnight. […] The lysates were then probe-sonicated for 10 seconds then clarified by centrifugation at 15,000 g for 15 minutes at 4° C. After treatment with SDS-sample buffer, protein extracts were resolved on NuPAGE Bis-Tris 4-12% gels (Invitrogen (Carlsbad, Calif.)). Samples were electrotransferred to PVDF membranes (Invitrogen (Carlsbad, Calif.)), incubated with primary antibody overnight, and developed using Pierce Dura-Signal chemiluminescence reagents (Pierce, Rockford, Ill.), or Odyssey infrared imaging system from LI-COR Biosciences (Lincoln, Nebr.).

The test system of a further series is cell line panel. The series is described as follows: 7-day colony formation or viability, cell line panel. Type of series: cell-based, human. The settings on record: sensitive vs ABCB1-overexpressing lines. On the procedure: (§1) SW620^ABCB1/3 and the respective parental cell lines were washed and 500 cells/well were seeded into six-well plates in drug-free medium. Then, 24 hours later, compounds were diluted in DMEM or RPMI, added to the cells, which were cultured at 37° C. for 7-10 days. Cells were then fixed and stained with 0.2% crystal violet to visualize and count colonies.

For a further series, the system named is SW620^ABCB1/3. The series is described as follows: colony formation, SW620^ABCB1/3. Type of series: cell-based, human. On the procedure:
as §1

A further series relates to AsPC1. The series can be described thus: colony formation, AsPC1. In kind it is cell-based, human.
The test system of a further series is HCT-15. The series can be described thus: colony formation, HCT-15. In kind it is cell-based, human.
Series [2] relates to HCT-15 colon carcinoma xenografts. The series can be described thus: xenograft growth, HCT-15. Type of series: in vivo, mice.
Series [3] deals with DoHH-2 B-cell lymphoma xenografts. The series can be described thus: xenograft growth, DoHH-2. In kind it is in vivo, mice.
A further series concerns HCT116. The series can be described thus: xenograft growth, HCT116. In kind it is in vivo, mice.

Turning to `CCN(CCCOc1ccc2c(Nc3cc(CC(=O)Nc4cccc(F)c4)n[nH]3)ncnc2c1)CCOP(=O)(O)O` [AZD1152, 2-[[3-({4-[(5-{2-[(3-Fluorophenyl)amino]-2-oxoethyl}-1H-pyrazol-3-yl)amino]-quinazolin-7-yl}oxy)propyl](ethyl)amino)ethyl dihydrogen phosphate], in the series with bone marrow (following cessation of AZD1152 treatment), the reversibility of myelosuppression result was “fully reversible”. Further, the myelosuppression entry with bone marrow (secondary to inhibition of proliferation of the bone marrow) was “transient myelosuppression”. Further, in series [1], the “conversion of prodrug to active drug” value was “rapidly converted to the active drug”.

`C/C=C/C[C@@H](C)C(=O)[C@H]1C(=O)N[C@@H](C(C)C)C(=O)N(C)CC(=O)N(C)[C@@H](CC(C)C)C(=O)N[C@@H](C(C)C)C(=O)N(C)[C@@H](CC(C)C)C(=O)N[C@@H](C)C(=O)N[C@H](C)C(=O)N(C)[C@@H](CC(C)C)C(=O)N(C)[C@@H](CC(C)C)C(=O)N(C)[C@@H](C(C)C)C(=O)N1C` [PSC-833]: the “reversal of resistance to AZD1152 HQPA” value in the series with SW620^ABCB1/3 cells is reported as “effective in reversing the resistance”.

Turning to `O=C(O)c1ccc(Nc2ncc3c(n2)-c2ccc(Cl)cc2C(c2c(F)cccc2F)=NC3)cc1` [MLN8054, 4-{[9-choloro-7-(2,6-difluorophenyl)-5H-pyrimido[5,4-D][2]benzazepin-2-yl]amino}-benzoic acid], in the series with cell line panel, the “activity profile in the cell line panel” value is “No apparent loss in potency”.

Consider `CC(=O)O[C@H]1C(=O)[C@@]2(C)[C@H]([C@H](OC(=O)c3ccccc3)[C@]3(O)C[C@H](OC(=O)[C@H](O)[C@@H](NC(=O)c4ccccc4)c4ccccc4)C(C)=C1C3(C)C)[C@]1(OC(C)=O)CO[C@@H]1C[C@@H]2O` [paclitaxel], for which the results for the relative sensitivity entry with SW620^ABCB1/3, with AsPC1 and in the series on HCT-15 were “relatively insensitive”, “not AsPC1 were relatively insensitive” and “relatively insensitive”, respectively.

Turning to `Cc1cc(Nc2cc(N3CCN(C)CC3)nc(Sc3ccc(NC(=O)C4CC4)cc3)n2)[nH]n1` [VX-680, cyclopropane carboxylic acid {4-[4-(4-methyl-piperazin-1-yl)-6-(5-methyl-2H-pyrazol-3-ylamino)-pyrimidin-2-ylsulphanyl]-phenyl}-amide], the “xenograft growth under treatment” value in [2] is “unabated”. Further, the tumor growth inhibition result (in series [3]; with HCT116) was “significant tumor growth inhibition” each time.
